Measurements from patent US9107919B2, “Pharmaceutical compositions comprising imidazoquinolin(amines) and derivatives thereof suitable for local administration” (priority 2009, dated 2015).
In brackets after ≈: the same amount, converted by molar mass.

How the values were obtained:
[1] = Toxicity of intravesical imiquimod in pigs (well-being, blood, bladder histology); type: in vivo, pig
Procedure: Animal procedures were performed according to the protocol approved by the Institutional Animal Care and Use Committee (IACUC, Radboud University Nijmegen Medicai Centre, The Netherlands) and in compliance with national and European regulations. Female pigs (Dutch Landrace) were used for this study. The urogenital tract of the pig closely resembles the human urogenital system, and the shape of the penis and the preputial diverticulum prevent transurethral catheterization of a male pig. The sows were housed in special swine stainless steel battery cages and fed with universal swine food. The pigs were divided into four groups of six animals. Experimental procedures were performed under general anesthesia. […]
Body temperature was measured rectally before and 1, 8 and 24 hours and one week after starting treatment. The well being of the animals was monitored by experienced staff by a selected protocollary list of possible signs and symptoms of toxicity before the experiment, just after the instillation and just before cystectomy.
24 hours after treatment three animals per group were sacrificed and cystectomised and 7 days after treatment the remaining animals underwent the same procedure. […] Material was embedded in paraffin, sectioned, and stained with H&E. The slides were evaluated for signs of inflammation and allergic reaction in submucosa and mucosa. […]

[2] = Preliminary solubility tests of imiquimod (visual inspection); type: physicochemical
Procedure: 48 mg of imiquimod was weighed and added of hydrochloric acid solutions at different concentrations: in particular 48.2 mg imiquimod were treated with 8 ml hydrochloric acid 0.1 N, 48.6 mg imiquimod with 9 ml hydrochloric acid 0.2 N and 48.4 mg imiquimod with 8 ml hydrochloric acid 2 N. After vortexing for 5 minutes, the samples were visually inspected.
A weighed amount of drug (48.2 mg) was dissolved under agitation in 2 ml glacial acetic acid. After complete solubilisation a weighed aliquot of imiquimod (150 mg) was added to this solution in order to visually evaluate the maximum concentration of dissolved drug.
The solubility of imiquimod at different pH values was determined. Two different procedures were used. The drug was dispersed in the buffer (without acetic acid as co-solvent). 72 mg imiquimod were dispersed with 10 ml citrate buffer, 155 mg imiquimod in 10 ml phosphate buffer and 192 mg in 10 ml acetate buffer. After vortexing for 5 minutes, each sample was visually inspected.
A visual inspection of the systems was carried out.

[3] = Solubility of imiquimod in short-chain acids, cyclodextrin and surfactants (spectrophotometry); type: physicochemical
Procedure: Some inorganic and organic acids were considered as potential solubilizers of the drug. 100 mg imiquimod were dissolved in 10 ml of phosphoric acid 0.1 M, succinic acid 0.1 M, citric acid 0.1 M, acetic acid 0.01 M, 0.05 M, 0.1 M and lactic acid 0.01 M, 0.05 M, 0.088 M, and 0.1 M. These systems, after filtration, were spectrophotometrically analyzed for imiquimod and their pH was measured.
Exactly weighed amounts of imiquimod (200 mg) and hydroxypropyl-β-cyclodextrin (HP-β-CD) (4000 mg) were dissolved in 10 ml of: • water • water at pH 5.0 (corrected with HCl) • water at pH 3.0 (corrected with HCl) • lactic acid solution (0.1 M)
After shaking for 24 hours and filtration (0.22 μm Millipore membrane filter) the solubilised imiquimod was spectrophotometrically determined. The solution pH was also measured.
Imiquimod (200 mg) was weighed and mixed with different amounts of surfactants (Tween 20, Tween 80, Cremophor EL or Pluronic F-68) in order to prepare formulations containing 0.5, 2.5 and 5% of surface active agent. Each mixture was added to 10 ml of lactic acid (0.1 M), gently shaken for 24 hours, filtered and analyzed by spectrophotometry and submitted to pH measurement.
The imiquimod present in solution in compositions prepared with different acids and surfactants is spectrophotometrically determined and is shown in Table 5 together with the pH value.

[4] = Imiquimod solubility in different solvent systems; type: physicochemical
Procedure: The dispersions have been centrifuged at 10,000 rpm for 10 minutes and the liquid phases collected and stored at room temperature until analysed. The imiquimod concentration in these solutions was spectrophotometrically (λ=319 nm) determined after appropriated dilution.

[5] = Pharmacokinetics of intravesical imiquimod in pigs (plasma, urine); type: in vivo, pig; settings: female, Dutch Landrace, other: intravesical instillation, 50 mL of imiquimod 0.5% solution
Procedure: Female pigs (Dutch Landrace) were used for this study. […] The pigs were divided into four groups of six animals. Experimental procedures were performed under general anesthesia. Premedication contained a mixture of 10 mg/kg ketamine and 0.5 to 1.0 mg/kg midazolam i.m. in one shot. Sedation maintenance was done by the same mixture in half the dosage every 45 minutes. The bladder was emptied without suction trauma prior to the start of treatment (via 12 French Foley catheter) and 50 mL of the study drug was instilled intravesically. […] The catheter was clamped and the instillation fluid was retained in the bladder for 60 minutes, after which the bladder was emptied. The bladder was not rinsed after emptying.
Blood samples for pharmacokinetic analysis and cytokine measurement were collected in 4 mL lithium heparin tubes with gel divider before instillation of the study drug and 15, 30, 60, 120, 240 and 480 minutes after the beginning of drug instillation and also just before cystectomy. The samples were transferred on ice to the laboratory for plasma processing within 30 minutes. […]
The post-treatment evacuated bladder content and the evacuated urine just before necropsy were collected for analysis of imiquimod concentration. […] Imiquimod concentrations in plasma and urine was determined by CHIMAN s.r.1. […]

[6] = cited from earlier work
[7] = Solubility of imiquimod in glycerol or propylene glycol; type: physicochemical; settings: for imiquimod concentration in solution: 120° C. 24 h, then water added
Procedure: Imiquimod was weighed (100 mg) and added of glycerol or propylene glycol to a volume of 10 ml. After shaking (at 120° C. for 24 hours) and cooling, 10 ml of water were added: the dispersions were filtered and the imiquimod amount in the liquid phases was determined. […] When propylene glycol was used the pH was 3.03 and the concentration of imiquimod in solution was 0.02%.

[8] = Imiquimod solubility in glacial acetic acid and buffers (HPLC/UV); type: physicochemical
Procedure: The solubility was experimentally determined weighing 1200 mg of drug, adding 10 ml of glacial acetic acid and gently shaking the dispersion for 24 hours. This sample, after filtration (0.22 μm Millipore membrane filter) was analyzed by HPLC for the imiquimod content and its pH was measured.
Imiquimod (738 mg) was initially dissolved in glacial acetic acid (10 ml). A volume of this solution was appropriately diluted with phosphate buffer pH 7.0 (0.1 M), citrate buffer pH 6.0 (0.1 M) or acetate buffer pH 5.0 (0.1 M) to prepare systems containing 2.0% of drug. The samples, after filtration by 0.22 μm Millipore membrane filter, were spectrophotometrically and chromatographically analyzed for the imiquimod content. The pH was determined.

[9] = Imiquimod diffusion/release, Franz cell with cellulose acetate membrane; type: physicochemical; settings: 0.1 M lactic acid solution, 37° C., first hour
Procedure: The imiquimod diffusion/release experiments have been performed with Franz cells with an effective diffusion area of 1.76 cm^2 and a receiving compartment volume of 14 ml: the donor compartment contained about 2 g of gel formulation, while the receiving one was filled with 0.1 M lactic acid solution (pH=3.5). Between the two compartments, a cellulose acetate membrane (MWCO=23000) was interposed. The experiments were carried out at 37° C. using a re-circulating bath and the fluid in the receptor chamber was stirred continuously at 300 rpm.
At prefixed time intervals, the receiving phase was completely withdrawn and substituted by fresh acid solution. The receiving solution was submitted to UV analysis for imiquimod.

[10] = dissolved in glacial acetic acid, then diluted with buffers
[11] = HP-β-CD 40.0% (water at pH 3.0 corrected with HCl)
[12] = HP-β-CD 40.0% (water at pH 5.0 corrected with HCl)
[13] = lactic acid 0.100 M + Cremophor EL 0.5%
[14] = lactic acid 0.100 M + Cremophor EL 2.5%
[15] = lactic acid 0.100 M + Cremophor EL 5.0%
[16] = lactic acid 0.100 M + HP-β-CD 40.0%
[17] = lactic acid 0.100 M + Pluronic F68 0.5%
[18] = lactic acid 0.100 M + Pluronic F68 2.5%
[19] = lactic acid 0.100 M + Pluronic F68 5.0%
[20] = lactic acid 0.100 M + Tween 20 0.5%
[21] = lactic acid 0.100 M + Tween 20 2.5%
[22] = lactic acid 0.100 M + Tween 20 5.0%
[23] = lactic acid 0.100 M + Tween 80 0.5%
[24] = lactic acid 0.100 M + Tween 80 2.5%
[25] = lactic acid 0.100 M + Tween 80 5.0%
[26] = 27% glacial acetic acid/73% acetate buffer pH 5.0 (0.1 M), system with 2.0% drug
[27] = 27% glacial acetic acid/73% citrate buffer pH 6.0 (0.1 M), system with 2.0% drug
[28] = 27% glacial acetic acid/73% phosphate buffer pH 7.0 (0.1 M), system with 2.0% drug

Q: Which results are given for `CC(C)Cn1cnc2c(N)nc3ccccc3c21` [imiquimod, 1-isobutyl-1H-imidazo[4,5-c]quinolin-4-amine]?
A: tolerability of intravesical administration [1]: well tolerated, causes no bladder wall toxicity; solubility in buffers (visual) ([2]; citrate, phosphate, acetate buffer, without acetic acid): slightly soluble; appearance after dilution [2, 10]: clear, transparent solutions; pH of the systems [2, 10]: lower than 3.6; solubility ([2]; glacial (100%) acetic acid, organic solvent or mixture, thermodynamic from solid, room temperature): 100 mg/mL (≈ 416 mM); solubility (visual) ([2]; hydrochloric acid 0.1 N, 0.2 N and 2 N): slightly soluble; solubility in glacial (100%) acetic acid ([2]; room temperature, visual): 10 % (w/v); imiquimod in solution [3, 11]: 0.655 % w/v; pH [3, 11]: 3.05; imiquimod in solution [3, 12]: 0.143 % w/v; pH [3, 12]: 5.17; imiquimod in solution ([3]; HP-β-CD 40.0%, no acid (water)): 0.004 % w/v; pH ([3]; HP-β-CD 40.0%, no acid (water)): 7.09; imiquimod in solution ([3]; acetic acid 0.010 M): 0.070 % w/v; pH ([3]; acetic acid 0.010 M): 4.37; imiquimod in solution ([3]; acetic acid 0.050 M): 0.220 % w/v; pH ([3]; acetic acid 0.050 M): 4.08; imiquimod in solution ([3]; acetic acid 0.100 M): 0.430 % w/v; pH ([3]; acetic acid 0.100 M): 3.97; imiquimod in solution ([3]; citric acid 0.100 M): 0.010 % w/v; pH ([3]; citric acid 0.100 M): 2.10; imiquimod in solution ([3]; lactic acid 0.010 M): 0.130 % w/v; pH ([3]; lactic acid 0.010 M): 4.20; imiquimod in solution ([3]; lactic acid 0.050 M): 0.530 % w/v; pH ([3]; lactic acid 0.050 M): 3.90; imiquimod in solution ([3]; lactic acid 0.088 M): 0.840 % w/v; pH ([3]; lactic acid 0.088 M): 3.71; imiquimod in solution ([3]; lactic acid 0.100 M): 0.980 % w/v; pH ([3]; lactic acid 0.100 M): 3.61; imiquimod in solution [3, 13]: 0.881 % w/v; pH [3, 13]: 3.90; imiquimod in solution [3, 14]: 0.989 % w/v; pH [3, 14]: 3.87; imiquimod in solution [3, 15]: 0.969 % w/v; pH [3, 15]: 3.88; imiquimod in solution [3, 16]: 1.141 % w/v; pH [3, 16]: 4.46; imiquimod in solution [3, 17]: 1.048 % w/v; pH [3, 17]: 3.85; imiquimod in solution [3, 18]: 1.088 % w/v; pH [3, 18]: 3.87; imiquimod in solution [3, 19]: 0.972 % w/v; pH [3, 19]: 3.89; imiquimod in solution [3, 20]: 0.945 % w/v; pH [3, 20]: 3.88; imiquimod in solution [3, 21]: 1.004 % w/v; pH [3, 21]: 3.86; imiquimod in solution [3, 22]: 1.001 % w/v; pH [3, 22]: 3.89; imiquimod in solution [3, 23]: 0.997 % w/v; pH [3, 23]: 3.83; imiquimod in solution [3, 24]: 1.009 % w/v; pH [3, 24]: 3.82; imiquimod in solution [3, 25]: 0.872 % w/v; pH [3, 25]: 3.82; imiquimod in solution ([3]; phosphoric acid 0.100 M): 0.159 % w/v; pH ([3]; phosphoric acid 0.100 M): 1.80; imiquimod in solution ([3]; succinic acid 0.100 M): 0.079 % w/v; pH ([3]; succinic acid 0.100 M): 2.94; pH ([4]; 5% CD LA 01): 3.90; imiquimod solubility ([4]; 5% CD LA 01 (5% HP-β-CD in 0.1 M lactic acid)): 1.23 % w/w; imiquimod solubility ([4]; 5% CD-16% PF127 LA 01): 1.15 % w/w; pH ([4]; 5% CD-16% PF127 LA 01): 4.05; pH ([4]; 5% PF127 LA 01): 3.92; imiquimod solubility ([4]; 5% PF127 LA 01 (5% Poloxamer 407 in 0.1 M lactic acid)): 1.19 % w/w; pH ([4]; 15% CD LA 01): 4.03; imiquimod solubility ([4]; 15% CD LA 01 (15% HP-β-CD in 0.1 M lactic acid)): 1.37 % w/w; imiquimod solubility ([4]; 15% CD-16% PF127 LA 01): 1.22 % w/w; pH ([4]; 15% CD-16% PF127 LA 01): 4.25; imiquimod solubility ([4]; 16% PF127 LA 01): 1.10 % w/w; pH ([4]; 16% PF127 LA 01): 3.99; imiquimod solubility ([4]; 20% PF127 LA 01): 1.04 % w/w; pH ([4]; 20% PF127 LA 01): 4.16; imiquimod solubility ([4]; DMSO): 0.09 % w/w; imiquimod solubility ([4]; Glutamic acid 0.072M): 0.54 % w/w; pH ([4]; Glutamic acid 0.072M): 3.95; imiquimod solubility ([4]; Glycolic acid 0.1M): 0.68 % w/w; pH ([4]; Glycolic acid 0.1M): 3.82; pH ([4]; LA 0.025M): 3.93; imiquimod solubility ([4]; LA 0.025M, 25° C., 24 h): 0.33 % w/w; pH ([4]; LA 0.05M): 3.81; imiquimod solubility ([4]; LA 0.05M, 25° C., 24 h): 0.58 % w/w; pH ([4]; LA 0.1M): 3.73; imiquimod solubility ([4]; LA 0.1M, 25° C., 24 h): 1.18 % w/w; pH ([4]; LA 0.2M): 3.52; imiquimod solubility ([4]; LA 0.2M, 25° C., 24 h): 2.20 % w/w; imiquimod solubility ([4]; N-Methyl-pyrrolidone): 0.16 % w/w; imiquimod solubility ([4]; PEG 400): 0.03 % w/w; imiquimod solubility ([4]; Tartaric acid 0.1M): 0.01 % w/w; pH ([4]; Tartaric acid 0.1M): 2.48; concentration at 24 h ([5]; pig, urine, after 24 hours, all imiquimod groups, read-out: imiquimod levels in urine): < 5000 ng/mL; concentration at 8 h ([5]; plasma, after eight hours, any pig): < 2.1 ng/mL; pKa [6]: about 4; pH ([7]; glycerol system): 5.42; imiquimod concentration in solution ([7]; glycerol): 0.02%; pH ([7]; propylene glycol system): 3.03; imiquimod concentration in solution ([7]; propylene glycol): 0.02%; solubility in pure acetic and lactic acid [8]: > 7.5 % w/v; pH ([8]; 27% glacial acetic acid/73% acetate buffer pH 5.0): 2.92; Imiquimod solubility, HPLC [8, 26]: 1.89 % w/v; Imiquimod solubility, UV [8, 26]: 1.92 % w/v; pH ([8]; 27% glacial acetic acid/73% citrate buffer pH 6.0): 3.20; Imiquimod solubility, HPLC [8, 27]: 0.86 % w/v; Imiquimod solubility, UV [8, 27]: 0.72 % w/v; pH ([8]; 27% glacial acetic acid/73% phosphate buffer pH 7.0): 2.92; Imiquimod solubility, HPLC [8, 28]: 1.69 % w/v; Imiquimod solubility, UV [8, 28]: 1.55 % w/v; Imiquimod solubility, HPLC ([8]; 100% glacial acetic acid, 24 h shaking): 7.50 % w/v; flux of imiquimod through the artificial barrier [9]: 1.95e-06 g·cm^−2·s^−1
